Data on 6 compounds can be found in PubChem BioAssay (NCI).

Several values for one entry are separate records, joined by “and”; a condition that tells them apart may be missing. Equal values may be shown once.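 Briefly, cells in 96-well plates were exposed to five compound concentrations for 48 h, and endpoints were estimated by linear interpolation. Here, GI50 denotes the concentration required for 50% inhibition of growth. TGI marks complete inhibition of growth.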

Test in all cases: DTP human tumour cell line panel, 48 h
Assay [1] has as its system LOX IMVI melanoma.
In assay [2] the test system is 786-0 renal.
Assay [3] concerns HS 578T breast.
The test system of assay [4] is SNB-19 CNS.
In assay [5] the test system is HCC-2998 colon.
For assay [6], the system named is SW-620 colon.
Assay [7] deals with U251 CNS.
Assay [8] deals with UACC-62 melanoma.
For assay [9], the system named is SR leukemia.
In assay [10] the test system is NCI-H460 lung.

The term GI50 denotes the concentration giving 50% growth inhibition. Usually TGI stands for the concentration giving total growth inhibition. As to `CN1CCN(CCCN2c3ccccc3Sc3ccc(C(F)(F)F)cc32)CC1`, the GI50 in [1] was 1.59 µM; in assay [2], 1.78 µM; in [3], 2.22 µM; in assay [4], 1.86 µM; in assay [5], 1.42 µM and 1.64 µM and 3.82 µM; in assay [6], 1.85 µM and 3.67 µM and 8.47 µM. Besides, the GI50 in assay [7] is 1.7 µM; in assay [8] it was 1.57 µM; in assay [9], 2.72 µM and 2.09 µM and 8.62 µM; in assay [10] it was 1.99 µM. Moreover, the TGI is 3.28 µM and 8.79 µM and 11.2 µM in [1]; 3.33 µM and 16.1 µM and 21.6 µM in [2]; 8.41 µM and 14.7 µM and 20.6 µM in [3]; 4.45 µM and 26.8 µM and 29.3 µM in assay [4]; 3.02 µM and 3.21 µM and 8.68 µM in assay [5]; 4.44 µM and 18.1 µM and 21.4 µM in [6]. For the same compound, the TGI in [7] was 3.56 µM and 18.1 µM and 21.4 µM; in [8], 3.08 µM and 4.34 µM and 3.91 µM; in [9] it was 7.95 µM and > 20.4 µM and 27.2 µM; in assay [10], 4.15 µM and 5.21 µM and 12.1 µM.

As for `CN1CCN(CCCOc2ccc3nc(Nc4ccc(C(F)(F)F)c(Cl)c4)ccc3c2)CC1`, the GI50 in assay [1] is 1.07 µM; in [2], 1.67 µM; in assay [3], 1.82 µM; in assay [4], 1.74 µM; in assay [5], 1.72 µM; in [6], 1.71 µM. The GI50 in [7] was 1.46 µM; in assay [8], 1.83 µM; in assay [9], 1.17 µM; in [10], 1.88 µM. The TGI was 2.32 µM in assay [1]; 3.21 µM in assay [2]; 6.1 µM in assay [3]; 3.6 µM in assay [4]; 3.26 µM in assay [5]; 3.33 µM in assay [6]. In addition, the concentration for total growth inhibition (TGI) in assay [7] stood at 2.98 µM; in assay [8], 3.88 µM; in assay [9], 4.01 µM; in assay [10] it was 4.14 µM.

With `O=C(c1ccncc1)N1CCN(C2=NS(=O)(=O)c3ccccc3N2c2ccccc2)CC1`, the GI50 was 11.5 µM in [1]; 7.37 µM in [2]; 29.3 µM in [3]; 15 µM in [4]; 16.3 µM in assay [5]; 15.5 µM in [6]. Moreover, the GI50 is 8.32 µM in assay [7], 7.99 µM in assay [8], 0.177 µM in [9] and 2.59 µM in assay [10]. For the same compound, the TGI is over 100 µM in assay [1]; 37.2 µM in [2]; 81 µM in [3]; 44.9 µM in assay [4]; 37.6 µM in assay [5]; 57.1 µM in assay [6]. Further, the total growth inhibition concentration (TGI) in [7] is over 100 µM; in assay [8], 21.6 µM; in assay [9] it was 2.42 µM; in assay [10] it was over 100 µM.

With `CNC(=O)c1c(NC(=O)c2ccc(C(C)C)cc2)sc2c1CCC(=O)C2`, the GI50 in assay [1] is 0.24 µM; in [2], 0.636 µM; in assay [3], 0.357 µM; in assay [4], 0.453 µM; in assay [5] it was 0.906 µM; in [6] it was 0.125 µM. The 50% growth inhibitory concentration (GI50) in [7] is 0.253 µM; in [8], 0.453 µM; in assay [9] it was 0.273 µM; in [10] it was 0.58 µM. Also, the TGI in [1] came to 1.29 µM; in assay [2], 3.91 µM; in assay [3], 2.34 µM; in [4], 5.71 µM; in assay [5], 2.94 µM; in assay [6] it was 1.32 µM. In addition, the TGI in [7] was determined as 1.42 µM; in assay [8], 1.94 µM; in assay [9], 4.45 µM; in assay [10], 2.82 µM.

Take `COC(=O)c1cc(NC(=O)CN(CCN(CC(=O)O)CC(=O)Nc2ccc(O)c(C(=O)OC)c2)CC(=O)O)ccc1O`: the GI50 in assay [1] is 38.5 µM; in assay [2], 35.2 µM; in assay [3], over 100 µM; in assay [4], 41.9 µM; in assay [5], 97.4 µM; in [6] it was 74.9 µM. Moreover, the GI50 is 43.8 µM in [7], 48.2 µM in [8], 6.06 µM in assay [9] and 28.3 µM in [10]. For the same compound, the TGI in assay [1], in assay [2], in assay [3], in [4], in [5] and in assay [6] was over 100 µM throughout. For the same compound, the concentration for total growth inhibition (TGI) in assay [7] is over 100 µM; in assay [8] it was over 100 µM; in [9], 48.7 µM; in [10] it was over 100 µM.

In the case of `COc1ccc(CCN2COc3ccc4ccc(=O)oc4c3C2)cc1OC`, the total growth inhibition concentration (TGI) is 49.4 µM in assay [1]; over 100 µM in assay [2]; over 100 µM in [3]; over 100 µM in assay [4]; over 100 µM in assay [5]; 69 µM in [6]. For the same compound, the TGI in assay [7] is over 100 µM; in assay [8], over 100 µM; in assay [9] it was 50.5 µM; in assay [10], over 100 µM.
